Laboratory results: PubChem BioAssay AID2060490 (Molecular Pharmacology Branch, DTP, NCI, 2025)

System: 885512-296-R-J2-PDC complex spheroid viability
Assay: Anticancer human tumor 885512-296-R-J2-PDC patient-derived breast carcinoma cell line growth inhibition [GQUAD]
Settings: for IC50: curve of first compound; for viability, T/C: stronger effect = lower value
Source text: DNA G-quadruplex Stabilizer Agents in Combinations in Complex Spheroids
A high-throughput screen of multi-cell type tumor spheroids was designed to identify active combinations of DNA G-quadruplex stabilizer agents and targeted small molecules. Complex spheroids include a stromal component modeled by human endothelial cells (HUVEC) and fibroblasts modeled by human mesenchymal stem cells (MSCs). The concentration ranges selected for each drug and investigational agent were based upon clinically achievable concentrations if the clinical Cmax of the agent was known.
Compounds. The drugs and investigational agents: pidnarulex (CX-5461; NSC782164), APTO-253 (NSC789042), BRACO-19 (NSC847499), peposertib (NSC802822), ceralasertib (NSC780249), elimusertib (NSC800525), camonsertib (NSC841442), AZD-1390 (NSC803789), olaparib (NSC753686), talazoparib (NSC767125), ART-558 (NSC835418), sotorasib (NSC818433), MRTX-1133 (NSC836407), SN-38 (NSC673596), topotecan (NSC609699), etoposide (NSC141540), doxorubicin (NSC123127), gemcitabine (NSC613327), 5-fluorouracil (NSC19893), paclitaxel (NSC125973), vemurafenib (NSC761431), panobinostat (NSC761190), R-306465 (JNJ-16241199; NSC773264), adavosertib (NSC754352), TP-3654 (NSC805149), carboplatin (NSC241240), KSQ-4279 (NSC840948), and staurosporine (NSC755774) were obtained from the National Cancer Institute (NCI) Developmental Therapeutics Program Chemical Repository (34). The FDA-approved anticancer drug set is available from the NCI Developmental Therapeutics Program. […] The stock solutions were prepared in dimethyl sulfoxide (DMSO, Sigma-Aldrich, St. Louis, MO, cat. D2650) at 800-fold the tested concentration and stored at -70 degrees C prior to their use. All drugs and investigational agents were tested over a range starting from a high concentration at or near the clinical Cmax and decreasing in half-log increments. If the clinical Cmax for an agent had not been determined, the highest concentration tested was 10 microM.
2.3 Cell Culture. All cells were maintained in an incubator at 37 degrees C and 5% CO2 with 95% humidity. The PDC lines were cultured according to standard operating procedures established by the NCI PDMR. All PDCs were thawed and cultured in Matrigel-coated flasks prepared with a working solution of 1X Ham's F-12 nutrient mix, without supplementation (Invitrogen, cat. 11765054), 100 U/mL penicillin-streptomycin (Invitrogen, cat. 15140122), and 2.5% Matrigel (Corning Inc., cat. 354248) for the first three passages. The 857933-349-R-J2-PDC line was cultured in 6C/Colon 1B media, which includes advanced DMEM/F-12 (Thermo Fisher Scientific, cat. 12634028), 10 mM HEPES (Thermo Fisher Scientific, cat. 15630080), 1X GlutaMAX supplement (Thermo Fisher Scientific, cat. 35050061), 0.1 mg/mL primocin (InvivoGen, cat. ant-pm-2), 10% defined fetal bovine serum, heat inactivated (HyClone Laboratories Inc., cat. SH30070.03HI), 50% L-WRN conditioned media (ATCC, cat. CRL-3276), 1.25 mM N-Acetyl-L-cysteine (Sigma-Aldrich, cat. A9165), 10 mM nicotinamide (Sigma-Aldrich, cat. N0636), 1X B-27 supplement (Thermo Fisher Scientific, cat. 17504044), 1X N-2 supplement (Thermo Fisher Scientific, cat. 17502048), 10 microM Y-27632 dihydrochloride (Tocris Bioscience, cat. 1254), and 50 ng/mL human EGF recombinant protein (Thermo Fisher Scientific, cat. PHG0311). The 485176-168-R4-J1-PDC line was cultured in Panc media, which includes all 6C/Colon 1B media components plus 100 ng/mL human FGF-10 (Thermo Fisher Scientific, cat. 100-26), 500 nM SB-431542 (Selleckchem, cat. S1067), and gastrin (Tocris, cat. 3006).
[…]

[1] = second compound 0.0316 µM, first compound 0.0316 µM
[2] = second compound 0.0316 µM, first compound 0.316 µM
[3] = second compound 0.1 µM, first compound 0.0316 µM
[4] = second compound 0.1 µM, first compound 0.316 µM
[5] = second compound 0.316 µM, first compound 0.0316 µM
[6] = second compound 0.316 µM, first compound 0.316 µM
[7] = second compound 1 µM, first compound 0.0316 µM
[8] = second compound 1 µM, first compound 0.316 µM
[9] = second compound 3.16 µM, first compound 0.0316 µM
[10] = second compound 3.16 µM, first compound 0.316 µM
[11] = second compound 10 µM, first compound 0.0316 µM
[12] = second compound 10 µM, first compound 0.316 µM
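Further: spheroids exposed to the compounds for one week.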
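Wherever viability, T/C is given: percent of tumor spheroid viability relative to DMSO vehicle control wells.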

Question: How did the IC50 (second compound 0.0316 µM) turn out when `CC(=O)O[C@H]1C(=O)[C@@]2(C)[C@H]([C@H](OC(=O)c3ccccc3)[C@]3(O)C[C@H](OC(=O)[C@H](O)[C@@H](NC(=O)c4ccccc4)c4ccccc4)C(C)=C1C3(C)C)[C@]1(OC(C)=O)CO[C@@H]1C[C@@H]2O` + Cc1cnc(CNC(=O)c2c(=O)c3ccc(N4CCCN(C)CC4)nc3n3c2sc2ccccc23)cn1 was run?
Answer: Its IC50 is < 31.6 nM.

Question: And the IC50 (second compound 0.1 µM)?
Answer: Its IC50 is < 31.6 nM.

Question: And the IC50 (second compound 0.316 µM)?
Answer: Its IC50 is < 31.6 nM.

Question: And the IC50 (second compound 1 µM)?
Answer: Its IC50 is < 31.6 nM.

Question: What about the IC50 (second compound 3.16 µM) of the same compound?
Answer: Its IC50 is < 31.6 nM.

Question: And the IC50 (second compound 10 µM)?
Answer: The IC50 was < 31.6 nM.

Question: What about the viability, T/C [1] of the same compound?
Answer: The viability, T/C was 11.1%.

Question: And the viability, T/C (second compound 0.0316 µM, first compound 0.1 µM)?
Answer: Its viability, T/C is 3.65%.

Question: What about the viability, T/C [2] of the same compound?
Answer: The viability, T/C was 3.53%.

Question: What about the viability, T/C (second compound 0.0316 µM, first compound 1 µM) of the same compound?
Answer: Its viability, T/C is 4.58%.

Question: And the viability, T/C (second compound 0.0316 µM, first compound 3.16 µM)?
Answer: Its viability, T/C is 3.52%.

Question: What about the viability, T/C (second compound 0.0316 µM, first compound 10 µM) of the same compound?
Answer: Its viability, T/C is 3.97%.

Question: And the viability, T/C [3]?
Answer: Its viability, T/C is 7.92%.

Question: And the viability, T/C (second compound 0.1 µM, first compound 0.1 µM)?
Answer: The viability, T/C was 4.41%.

Question: And the viability, T/C [4]?
Answer: Its viability, T/C is 6.02%.

Question: And the viability, T/C (second compound 0.1 µM, first compound 1 µM)?
Answer: Its viability, T/C is 4.78%.

Question: What about the viability, T/C (second compound 0.1 µM, first compound 3.16 µM) of the same compound?
Answer: The viability, T/C was 4.71%.

Question: What about the viability, T/C (second compound 0.1 µM, first compound 10 µM) of the same compound?
Answer: The viability, T/C was 4.43%.

Question: And the viability, T/C [5]?
Answer: Its viability, T/C is 7.35%.

Question: What about the viability, T/C (second compound 0.316 µM, first compound 0.1 µM) of the same compound?
Answer: The viability, T/C was 6.45%.

Question: And the viability, T/C [6]?
Answer: The viability, T/C was 5.89%.

Question: What about the viability, T/C (second compound 0.316 µM, first compound 1 µM) of the same compound?
Answer: Its viability, T/C is 7.32%.

Question: And the viability, T/C (second compound 0.316 µM, first compound 3.16 µM)?
Answer: The viability, T/C was 6.29%.

Question: And the viability, T/C (second compound 0.316 µM, first compound 10 µM)?
Answer: The viability, T/C was 6.52%.

Question: What about the viability, T/C [7] of the same compound?
Answer: The viability, T/C was 7.81%.

Question: And the viability, T/C (second compound 1 µM, first compound 0.1 µM)?
Answer: The viability, T/C was 6.34%.

Question: And the viability, T/C [8]?
Answer: The viability, T/C was 5.06%.

Question: What about the viability, T/C (second compound 1 µM, first compound 1 µM) of the same compound?
Answer: The viability, T/C was 7.14%.

Question: And the viability, T/C (second compound 1 µM, first compound 3.16 µM)?
Answer: The viability, T/C was 6.19%.

Question: What about the viability, T/C (second compound 1 µM, first compound 10 µM) of the same compound?
Answer: The viability, T/C was 7.74%.

Question: And the viability, T/C [9]?
Answer: Its viability, T/C is 12.7%.

Question: And the viability, T/C (second compound 3.16 µM, first compound 0.1 µM)?
Answer: The viability, T/C was 0.54%.

Question: What about the viability, T/C [10] of the same compound?
Answer: Its viability, T/C is 0.25%.

Question: And the viability, T/C (second compound 3.16 µM, first compound 1 µM)?
Answer: Its viability, T/C is 0.47%.

Question: What about the viability, T/C (second compound 3.16 µM, first compound 3.16 µM) of the same compound?
Answer: The viability, T/C was 0.25%.

Question: What about the viability, T/C (second compound 3.16 µM, first compound 10 µM) of the same compound?
Answer: The viability, T/C was 0.18%.

Question: And the viability, T/C [11]?
Answer: Its viability, T/C is 0.12%.

Question: And the viability, T/C (second compound 10 µM, first compound 0.1 µM)?
Answer: The viability, T/C was 0.14%.

Question: What about the viability, T/C [12] of the same compound?
Answer: Its viability, T/C is 0.14%.

Question: What about the viability, T/C (second compound 10 µM, first compound 1 µM) of the same compound?
Answer: The viability, T/C was 0.12%.

Question: And the viability, T/C (second compound 10 µM, first compound 3.16 µM)?
Answer: Its viability, T/C is 0.15%.

Question: What about the viability, T/C (second compound 10 µM, first compound 10 µM) of the same compound?
Answer: Its viability, T/C is 0.16%.

Question: Which results are given for `CCc1c2c(nc3ccc(O)cc13)-c1cc3c(c(=O)n1C2)COC(=O)[C@]3(O)CC` + Cc1cnc(CNC(=O)c2c(=O)c3ccc(N4CCCN(C)CC4)nc3n3c2sc2ccccc23)cn1?
Answer: IC50 (second compound 0.0316 µM): < 0.999 nM; IC50 (second compound 0.1 µM): < 0.999 nM; IC50 (second compound 0.316 µM): < 0.999 nM; IC50 (second compound 1 µM): < 0.999 nM; IC50 (second compound 3.16 µM): < 0.999 nM; IC50 (second compound 10 µM): < 0.999 nM; viability, T/C (second compound 0.0316 µM, first compound 0.000999 µM): 17.9%; viability, T/C (second compound 0.0316 µM, first compound 0.00316 µM): 8.3%; viability, T/C (second compound 0.0316 µM, first compound 0.00999 µM): 5.81%; viability, T/C [1]: 3.27%; viability, T/C (second compound 0.0316 µM, first compound 0.0999 µM): 2%; viability, T/C [2]: 1.37%; viability, T/C (second compound 0.1 µM, first compound 0.000999 µM): 17%; viability, T/C (second compound 0.1 µM, first compound 0.00316 µM): 10.5%; viability, T/C (second compound 0.1 µM, first compound 0.00999 µM): 6.32%; viability, T/C [3]: 4.29%; viability, T/C (second compound 0.1 µM, first compound 0.0999 µM): 2.34%; viability, T/C [4]: 1.47%; viability, T/C (second compound 0.316 µM, first compound 0.000999 µM): 16.3%; viability, T/C (second compound 0.316 µM, first compound 0.00316 µM): 12.1%; viability, T/C (second compound 0.316 µM, first compound 0.00999 µM): 9.75%; viability, T/C [5]: 4.25%; viability, T/C (second compound 0.316 µM, first compound 0.0999 µM): 1.6%; viability, T/C [6]: 1.03%; viability, T/C (second compound 1 µM, first compound 0.000999 µM): 16.7%; viability, T/C (second compound 1 µM, first compound 0.00316 µM): 14.3%; viability, T/C (second compound 1 µM, first compound 0.00999 µM): 7.19%; viability, T/C [7]: 1.29%; viability, T/C (second compound 1 µM, first compound 0.0999 µM): 0.07%; viability, T/C [8]: 0.1%; viability, T/C (second compound 3.16 µM, first compound 0.000999 µM): 26.4%; viability, T/C (second compound 3.16 µM, first compound 0.00316 µM): 19.8%; viability, T/C (second compound 3.16 µM, first compound 0.00999 µM): 2.82%; viability, T/C [9]: 0.24%; viability, T/C (second compound 3.16 µM, first compound 0.0999 µM): 0.06%; viability, T/C [10]: 0.1%; viability, T/C (second compound 10 µM, first compound 0.000999 µM): 0.08%; viability, T/C (second compound 10 µM, first compound 0.00316 µM): 0.14%; viability, T/C (second compound 10 µM, first compound 0.00999 µM): 0.13%; viability, T/C [11]: 0.1%; viability, T/C (second compound 10 µM, first compound 0.0999 µM): 0.11%; viability, T/C [12]: 0.13%
